How the values were obtained:
IKKα = biological target: T1, IKKα (Homo sapiens, UniProt O15111); conditions: reported; cited from earlier work
T1 sequence (O15111 1-745): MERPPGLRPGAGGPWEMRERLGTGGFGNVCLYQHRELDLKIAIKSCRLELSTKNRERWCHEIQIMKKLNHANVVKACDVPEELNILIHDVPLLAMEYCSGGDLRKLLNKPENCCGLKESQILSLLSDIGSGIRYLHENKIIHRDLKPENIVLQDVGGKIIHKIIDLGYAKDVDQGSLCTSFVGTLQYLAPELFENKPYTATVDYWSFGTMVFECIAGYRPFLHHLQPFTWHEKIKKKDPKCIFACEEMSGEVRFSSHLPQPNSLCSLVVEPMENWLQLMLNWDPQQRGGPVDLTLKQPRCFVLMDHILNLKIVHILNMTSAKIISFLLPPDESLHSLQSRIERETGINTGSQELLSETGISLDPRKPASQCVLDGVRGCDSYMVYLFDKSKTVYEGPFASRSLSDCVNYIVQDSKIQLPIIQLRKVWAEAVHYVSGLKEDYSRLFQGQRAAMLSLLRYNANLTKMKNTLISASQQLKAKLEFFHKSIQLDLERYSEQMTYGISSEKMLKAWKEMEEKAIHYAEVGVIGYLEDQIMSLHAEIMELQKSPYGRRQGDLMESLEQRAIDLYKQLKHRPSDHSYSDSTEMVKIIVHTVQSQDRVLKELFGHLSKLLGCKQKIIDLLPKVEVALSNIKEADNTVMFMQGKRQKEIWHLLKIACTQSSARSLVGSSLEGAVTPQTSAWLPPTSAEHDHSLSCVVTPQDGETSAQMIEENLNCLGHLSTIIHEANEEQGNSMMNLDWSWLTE

[1] = system: OCI-Ly3 (ABC-DLBCL, MALT1 dependent); experiment: Cell death assay (CellTiter-Blue resazurin); type: cell-based, human; conditions: OCI-Ly3, 7 h
Description: The CellTiter-Blue® Cell Viability kit assay purchased from Promega was used to assess the cell death induced by NEMO stapled peptides in ABC- and GCB-DLBCL cell lines. […] Cells were considered 100% death when the fluorescence intensity value was the same as the one with the medium alone or with the cells treated with the cycloheximide protein synthesis inhibitor at 25 μM (Sigma Aldrich).
For each time point measurement 100 μl of cell samples were withdrawn at different incubation times (7 h, 24 h and 48 h) and subjected to resazurin assay for one hour at 37° C. in the CO2 incubator by adding and mixing for 10 sec 20 μl of resazurin. Fluorescence measurements were performed with a TECAN infinite F500 instrument at 560 nm excitation wavelength and 590 nm emission wavelength. Viability of cells at time 0 was determined just before adding compound and all experiments were performed in duplicate.
The percentage of cell death was calculated according to the following formula: (1−((RFUobs−blank)/(RFU100% viability−blank))*100), where RFUobs corresponds to the cells viability observed in the presence of compound, RFU100% viability, the initial cells viability and blank the background fluorescence measured using the medium alone.
The EC50 value was calculated by plotting the percentage of cell death as function of the compound concentration and fitting the experimental curve with the following formula: (A*P0)/(EC50+P0), where A is the amplitude of fluorescence, P0 is the peptide concentration.
To compare the inhibition efficiency of BA-UBI-SAHND306-Q313 with IKK inhibitors (MLN120B, MedChem Express) or IKKα/β inhibitor (TPCA1, R&D systems), 25,000 DLBCL cells (OCI-Ly3) were incubated for 7 h with an increasing concentration of IKK inhibitors ranging from 0 to 50 μM, and the amount of cell death was then determined using CellTiter-Blue® Cell Viability kit assay. For the MI-2 MALT1 inhibitor (Fontan et al., 2012, Cancer cell 22, 812-824), similar experiments were carried out in MALT dependent (OCI-Ly3) and independent (HLY1) DLBCL cells using a 0-25 μM range.

## NC(=O)Nc1sc(-c2ccc(F)cc2)cc1C(N)=O [TPCA-1]
IKKα
  IC50: 400 nM
[1]
  cell death: no significant additional effect

From patent publication US11884708B2, “Stapled peptide inhibitors of nemo as potential anti-inflammatory and anti-cancer drugs” (INSTITUT PASTEUR, priority 2015, dated 2024)
